Source: patent US20240360126A1, “PYRAZOLO[3,4-B]PYRIDINE COMPOUNDS FOR THE TREATMENT OF AUTOIMMUNE DISEASE” (Hoffmann-La Roche Inc., priority 2021, published 2024)
pIC50: −log10 of the molar value.

Target: T1, human TLR7 (Homo sapiens, UniProt Q9NYK1)
T1 construct: host or cells: HEK293 (HEK-Blue hTLR7)
T1 sequence (Q9NYK1 27-1049): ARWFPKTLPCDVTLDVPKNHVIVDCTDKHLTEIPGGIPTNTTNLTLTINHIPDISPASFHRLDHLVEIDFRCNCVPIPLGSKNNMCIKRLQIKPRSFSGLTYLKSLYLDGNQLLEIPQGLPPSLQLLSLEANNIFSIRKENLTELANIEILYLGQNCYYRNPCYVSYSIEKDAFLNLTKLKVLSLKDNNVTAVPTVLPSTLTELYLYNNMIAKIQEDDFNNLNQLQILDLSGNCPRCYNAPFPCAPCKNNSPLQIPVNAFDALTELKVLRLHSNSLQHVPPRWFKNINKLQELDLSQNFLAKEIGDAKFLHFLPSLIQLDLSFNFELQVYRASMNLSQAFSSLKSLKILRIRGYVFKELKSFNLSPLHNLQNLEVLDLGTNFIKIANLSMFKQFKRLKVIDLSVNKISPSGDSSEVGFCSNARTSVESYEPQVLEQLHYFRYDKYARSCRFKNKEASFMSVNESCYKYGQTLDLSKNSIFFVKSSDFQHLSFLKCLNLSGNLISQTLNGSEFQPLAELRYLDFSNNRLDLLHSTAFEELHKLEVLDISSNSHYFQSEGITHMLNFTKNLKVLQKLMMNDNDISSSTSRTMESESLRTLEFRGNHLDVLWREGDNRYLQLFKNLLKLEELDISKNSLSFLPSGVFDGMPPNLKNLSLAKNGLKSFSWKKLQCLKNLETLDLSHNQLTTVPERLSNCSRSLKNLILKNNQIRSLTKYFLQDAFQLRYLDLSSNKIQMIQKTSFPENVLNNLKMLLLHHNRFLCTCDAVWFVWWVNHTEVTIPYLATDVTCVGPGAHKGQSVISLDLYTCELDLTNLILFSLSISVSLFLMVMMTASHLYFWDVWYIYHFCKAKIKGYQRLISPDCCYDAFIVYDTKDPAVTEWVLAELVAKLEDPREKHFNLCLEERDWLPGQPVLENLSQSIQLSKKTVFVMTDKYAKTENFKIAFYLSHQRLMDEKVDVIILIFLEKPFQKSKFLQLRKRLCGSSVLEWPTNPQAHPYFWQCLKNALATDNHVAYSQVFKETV
Experiment: HEK293-Blue-hTLR-7 cells assay
Assay type: cell-based
Details: HEK293-Blue-hTLR7 cells, R848 stimulation, 20 hrs; read-out: HEK/hTLR7 IC50
Excerpt: A stable HEK293-Blue-hTLR-7 cell line was purchased from InvivoGen (Cat. #: hkb-htlr7, San Diego, California, USA). These cells were originally designed for studying the stimulation of human TLR7 by monitoring the activation of NF-κB. A SEAP (secreted embryonic alkaline phosphatase) reporter gene was placed under the control of the IFN-β minimal promoter fused to five NF-κB and AP-1-binding sites. The SEAP was induced by activating NF-κB and AP-1 via stimulating HEK-Blue hTLR7 cells with TLR7 ligands. Therefore the reporter expression was declined by TLR7 antagonist under the stimulation of a ligand, such as R848 (Resiquimod), for incubation of 20 hrs. The cell culture supernatant SEAP reporter activity was determined using QUANTI-Blue™ kit (Cat. #: rep-qbl, Invivogen, San Diego, Ca, USA) at a wavelength of 640 nm, a detection medium that turns purple or blue in the presence of alkaline phosphatase.
HEK293-Blue-hTLR7 cells were incubated at a density of 250,000-450,000 cells/mL in a volume of 170 μL in a 96-well plate in Dulbecco's Modified Eagle's medium (DMEM) containing 4.5 g/L glucose, 50 U/mL penicillin, […] streptomycin, […] Normocin, […] L-glutamine, 10% […] heat-inactivated fetal bovine serum with addition of 20 μL test compound in a serial dilution in the presence of final DMSO at 1% and 10 μL of 20 μM R848 in above DMEM, perform incubation under 37° C. in a CO2 incubator for 20 hrs. Then 20 μL of the supernatant from each well was incubated with 180 μL Quanti-blue substrate solution at 37° C. for 2 hrs and the absorbance was read at […] using a spectrophotometer. The signaling pathway that TLR7 activation leads to downstream NF-κB activation has been widely accepted, and therefore similar reporter assay was modified for evaluating TLR7 antagonist.

pIC50	Compound
8.30	COC[C@H]1CN(c2cnc([C@@H]3CCN(c4cc(C)nc5c4cnn5C)C[C@H]3C)c(C)c2)CCN1 [Example 29, 4-[(3S,4R)-4-[5-[(3R)-3-(methoxymethyl)piperazin-1-yl]-3-methyl-2-pyridyl]-3-methyl-1-piperidyl]-1,6-dimethyl-pyrazolo[3,4-b]pyridine]
8.30	Cc1cc(N2CC[C@@H](c3ncc(N4CC[C@@H](N)[C@H](F)C4)cc3C)[C@H](C)C2)c2cnn(C)c2n1 [Example 31, (3R,4R)-1-[6-[(3S,4R)-1-(1,6-dimethylpyrazolo[3,4-b]pyridin-4-yl)-3-methyl-4-piperidyl]-5-methyl-3-pyridyl]-3-fluoro-piperidin-4-amine]
8.10	Cc1cc(N2CC[C@@H](c3ncc(N4CC(C)(N)C4)cc3C)[C@H](C)C2)c2cnn(C)c2n1 [Example 32, 1-[6-[(3S,4R)-1-(1,6-dimethylpyrazolo[3,4-b]pyridin-4-yl)-3-methyl-4-piperidyl]-5-methyl-3-pyridyl]-3-methyl-azetidin-3-amine]
7.96	Cc1cc(N2CC[C@@H](c3ncc(N4C[C@H]5NCCO[C@@H]5C4)cc3C)[C@H](C)C2)c2cnn(C)c2n1 [Example 33, (4aR,7aR)-6-[6-[(3S,4R)-1-(1,6-dimethylpyrazolo[3,4-b]pyridin-4-yl)-3-methyl-4-piperidyl]-5-methyl-3-pyridyl]-3,4,4a,5,7,7a-hexahydro-2H-pyrrolo[3,4-b][1,4]oxazine]
7.09	Cc1cc(N2CC[C@@H](c3ccc(N4CCNCC4)cn3)[C@H](C)C2)c2cnn(C)c2n1 [Example 34, 1,6-dimethyl-4-[(3S,4R)-3-methyl-4-(5-piperazin-1-yl-2-pyridyl)-1-piperidyl]pyrazolo[3,4-b]pyridine]
8.22	Cc1cc(N2CC[C@H](c3ccc(N4CCNCC4)cn3)[C@@H](C)C2)c2cnn(C)c2n1 [Example 35, 1,6-dimethyl-4-[(3R,4S)-3-methyl-4-(5-piperazin-1-yl-2-pyridyl)-1-piperidyl]pyrazolo[3,4-b]pyridine]
7.74	CO[C@@H]1CN(c2ccc([C@H]3CCN(c4cc(C)nc5c4cnn5C)C[C@@H]3C)nc2)C[C@H]1N [Example 36, (3R,4R)-1-[6-[(3R,4S)-1-(1,6-dimethylpyrazolo[3,4-b]pyridin-4-yl)-3-methyl-4-piperidyl]-3-pyridyl]-4-methoxy-pyrrolidin-3-amine]
8.05	COC[C@H]1CN(c2ccc([C@H]3CCN(c4cc(C)nc5c4cnn5C)C[C@@H]3C)nc2)CCN1 [Example 37, 4-[(3R,4S)-4-[5-[(3R)-3-(methoxymethyl)piperazin-1-yl]-2-pyridyl]-3-methyl-1-piperidyl]-1,6-dimethyl-pyrazolo[3,4-b]pyridine]
7.89	Cc1cc(N2CC[C@H](c3ccc(N4CC5(CNCCO5)C4)cn3)[C@@H](C)C2)c2cnn(C)c2n1 [Example 38, 2-[6-[(3R,4S)-1-(1,6-dimethylpyrazolo[3,4-b]pyridin-4-yl)-3-methyl-4-piperidyl]-3-pyridyl]-5-oxa-2,8-diazaspiro[3.5]nonane]
7.92	CO[C@H]1CN(c2ccc([C@H]3CCN(c4cc(C)nc5c4cnn5C)C[C@@H]3C)nc2)CC[C@@H]1N [Example 39, (3S,4S)-1-[6-[(3R,4S)-1-(1,6-dimethylpyrazolo[3,4-b]pyridin-4-yl)-3-methyl-4-piperidyl]-3-pyridyl]-3-methoxy-piperidin-4-amine]
8.05	Cc1cc(N2CC[C@H](c3ccc(N4CCOC[C@@H](N)C4)cn3)[C@@H](C)C2)c2cnn(C)c2n1 [Example 40, (6S)-4-[6-[(3R,4S)-1-(1,6-dimethylpyrazolo[3,4-b]pyridin-4-yl)-3-methyl-4-piperidyl]-3-pyridyl]-1,4-oxazepan-6-amine]
8.22	Cc1cc(N2CC[C@H](c3ccc(N4CC[C@@H](N)[C@H](F)C4)cn3)[C@@H](C)C2)c2cnn(C)c2n1 [Example 41, (3R,4R)-1-[6-[(3R,4S)-1-(1,6-dimethylpyrazolo[3,4-b]pyridin-4-yl)-3-methyl-4-piperidyl]-3-pyridyl]-3-fluoro-piperidin-4-amine]
7.80	Cc1cc(N2CC[C@H](c3ccc(N4CC(C)(N)C4)cn3)[C@@H](C)C2)c2cnn(C)c2n1 [Example 43, 1-[6-[(3R,4S)-1-(1,6-dimethylpyrazolo[3,4-b]pyridin-4-yl)-3-methyl-4-piperidyl]-3-pyridyl]-3-methyl-azetidin-3-amine]
